In patent US9328138B2 (priority 2011, dated 2016):

Tests used:
[1] = biological target: T1, HCV genotype 1b (BK) NS3 modified enzyme with a R155K mutation (Hepatitis C virus genotype 1b, UniProt P26663, R1181K); test: HCV NS3 protease time-resolved fluorescence (TRF) assay, genotype 1b R155K; format: biochemical; details: Ki 1b R155K, genotype 1b (BK) NS3 R155K; single value
T1 construct: HCV genotype 1b (BK) NS3 modified enzyme
Summary of the method: (§1)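 Pre-incubation of NS3/NS4A protease with inhibitor for 10 min in pH 7.5 HEPES buffer with 10 mM DTT; 25 nM TRF peptide substrate, hydrolysis 6 h at room temperature. Fluorescence read at ex 340/em 615 nm with 400 μs delay, enzyme level set for S/B 5-20; IC50 by four-parameter fit.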

[2] = biological target: HCV NS3 protease genotype 3a (3A-1) (Hepatitis C virus genotype 3a, UniProt Q81258); test: HCV NS3 protease time-resolved fluorescence (TRF) assay, genotype 3a; format: biochemical; details: Ki 3a
Summary of the method: as §1

Row | Compound | Ki [1] [nM] | Ki [2] [nM]
1 | C=C[C@@H]1C[C@]1(NC(=O)[C@@H]1C[C@@H]2CN1C(=O)[C@H](C(C)(C)C)NC(=O)O[C@@H]1C[C@H]1CCCCCc1c(nc3ccccc3c1OCCCN(C)C(C)C(O)c1ccccc1)O2)C(=O)NS(=O)(=O)C1(C)CC1 (stereo partly drawn) [Example 190, (1aR,5S,8S,10R,22aR)-5-tert-butyl-N-[(1R,2S)-2-ethenyl-1-{[(1-methylcyclopropyl)sulfonyl]carbamoyl}cyclopropyl]-17-{3-[(1-hydroxy-1-phenylpropan-2-yl)(methyl)amino]propoxy}-3,6-dioxo-1,1a,3,4,5,6,9,10,18,19,20,21,22,22a-tetradecahydro-8H-7,10-methanocyclopropa[18,19][1,10,3,6] dioxadiazacyclononadecino[11,12-b] quinoline-8-carboxamide] | 0.074 | 1.5
2 | C=C[C@@H]1C[C@]1(NC(=O)[C@@H]1C[C@@H]2CN1C(=O)[C@H](C(C)(C)C)NC(=O)O[C@@H]1C[C@H]1CCCCCc1c(nc3ccccc3c1OCCCN(C)Cc1nc3cc(C)ccc3[nH]1)O2)C(=O)NS(=O)(=O)C1(C)CC1 [Example 191, (1aR,5S,8S,10R,22aR)-5-tert-butyl-N-[(1R,2S)-2-ethenyl-1-{[(1-methylcyclopropyl)sulfonyl]carbamoyl}cyclopropyl]-17-(3-{methyl[(5-methyl-1H-benzimidazol-2-yl)methyl]amino}propoxy)-3,6-dioxo-1,1a,3,4,5,6,9,10,18,19, 20,21,22,22a-tetradecahydro-8H-7,10-methano cyclopropa[18,19][1,10,3,6] dioxadiazacyclononadecino[11,12-b] quinoline-8-carboxamide] | 0.16 | 1.5
3 | C=C[C@@H]1C[C@]1(NC(=O)[C@@H]1C[C@@H]2CN1C(=O)[C@H](C(C)(C)C)NC(=O)O[C@@H]1C[C@H]1CCCCCc1c(nc3ccccc3c1OCCCN(CC)CCc1nc3ccccc3[nH]1)O2)C(=O)NS(=O)(=O)C1(C)CC1 [Example 192, (1aR,5S,8S,10R,22aR)-17-(3-{[2-(1H-benzimidazol-2-yl)ethyl](ethyl)amino}propoxy)-5-tert-butyl-N-[(1R,2S)-2-ethenyl-1-{[(1-methylcyclopropyl)sulfonyl]carbamoyl}cyclopropyl]-3,6-dioxo-1,1a,3,4,5,6,9,10,18,19,20,21, 22,22a-tetradecahydro-8H-7,10-methanocyclopropa[18,19][1,10,3,6] dioxadiazacyclononadecino[11,12-b] quinoline-8-carboxamide] | 0.1 | 0.71
4 | C=C[C@@H]1C[C@]1(NC(=O)[C@@H]1C[C@@H]2CN1C(=O)[C@H](C(C)(C)C)NC(=O)O[C@@H]1C[C@H]1CCCCCc1c(nc3ccccc3c1OCCCN1CC(O)(c3ccccc3)C1)O2)C(=O)NS(=O)(=O)C1(C)CC1 [Example 193, (1aR,5S,8S,10R,22aR)-5-tert-butyl-N-[(1R,2S)-2-ethenyl-1-{[(1-methylcyclopropyl)sulfonyl]carbamoyl}cyclopropyl]-17-[3-(3-hydroxy-3-phenylazetidin-1-yl)propoxy]-3,6-dioxo-1,1a,3,4,5,6,9,10,18,19,20, 21,22,22a-tetradeca hydro-8H-7,10-methanocyclopropa[18,19][1,10,3,6] dioxadiazacyclononadecino[11,12-b] quinoline-8-carboxamide] | 0.16 | 1.5
5 | C=C[C@@H]1C[C@]1(NC(=O)[C@@H]1C[C@@H]2CN1C(=O)[C@H](C(C)(C)C)NC(=O)O[C@@H]1C[C@H]1CCCCCc1c(nc3ccccc3c1OCCCN1CC3(COC3)C1)O2)C(=O)NS(=O)(=O)C1(C)CC1 [Example 194] | 0.032 | 0.38
6 | C=C[C@@H]1C[C@]1(NC(=O)[C@@H]1C[C@@H]2CN1C(=O)[C@H](C(C)(C)C)NC(=O)O[C@@H]1C[C@H]1CCCCCc1c(nc3ccccc3c1OCCCN(C)CC1CCC(=O)N1)O2)C(=O)NS(=O)(=O)C1(C)CC1 (stereo partly drawn) [Example 195, (1aR,5S,8S,10R,22aR)-5-tert-butyl-N-[(1R,2S)-2-ethenyl-1-{[(1-methylcyclopropyl)sulfonyl]carbamoyl}cyclopropyl]-17-(3-{methyl[(5-oxopyrrolidin-2-yl)methyl]amino}propoxy)-3,6-dioxo-1,1a,3,4,5,6,9,10,18, 19,20,21,22,22a-tetradecahydro-8H-7,10-methanocyclopropa[18,19][1,10,3,6] dioxadiazacyclononadecino[11,12-b] quinoline-8-carboxamide] | 0.049 | 0.66
7 | C=C[C@@H]1C[C@]1(NC(=O)[C@@H]1C[C@@H]2CN1C(=O)[C@H](C(C)(C)C)NC(=O)O[C@@H]1C[C@H]1CCCCCc1c(nc3ccccc3c1OCCCN1CC3CCC1C3)O2)C(=O)NS(=O)(=O)C1(C)CC1 [Example 196, (1aR,5S,8S,10R,22aR)-17-[3-(2-azabicyclo[2.2.1]hept-2-yl)propxy]-5-tert-butyl-N-[(1R,2S)-2-ethenyl-1-{[(1-methylcyclopropyl)sulfonyl]carbamoyl}cyclopropyl]-3,6-dioxo-1,1a, 3,4,5,7,9,10,18,19,20,21,22,22a-tetradecahydro-8H-7,10-methanocyclopropa[18,19][1,10,3,6] dioxadiazacyclononadecino[11,12-b] quinoline-8-carboxamide] | 0.1 | 0.85
8 | C=C[C@@H]1C[C@]1(NC(=O)[C@@H]1C[C@@H]2CN1C(=O)[C@H](C(C)(C)C)NC(=O)O[C@@H]1C[C@H]1CCCCCc1c(nc3ccccc3c1OCCCNCCN1CCCC1=O)O2)C(=O)NS(=O)(=O)C1(C)CC1 [Example 197, (1aR,5S,8S,10R,22aR)-5-tert-butyl-N-[(1R,2S)-2-ethenyl-1-{[(1-methylcyclopropyl)sulfonyl]carbamoyl}cyclopropyl]-3,6-dioxo-17-(3-{[2-(2-oxopyrrolidin-1-yl)ethyl]amino}propoxy)-1,1a,3,4,5,7,9,10, 18,19,20,21,22,22a-tetra decahydro-8H-7,10-methanocyclopropa[18,19][1,10,3,6] dioxdiazacyclononadecino[11,12-b] quinoline-8-carboxamide] | 0.027 | 0.31
9 | C=C[C@@H]1C[C@]1(NC(=O)[C@@H]1C[C@@H]2CN1C(=O)[C@H](C(C)(C)C)NC(=O)O[C@@H]1C[C@H]1CCCCCc1c(nc3ccccc3c1OCCCNCCCCc1ccccc1)O2)C(=O)NS(=O)(=O)C1(C)CC1 [Example 198, (1aR,5S,8S,10R,22aR)-5-tert-butyl-N-[(1R,2S)-2-ethenyl-1-{[(1-methylcyclopropyl)sulfonyl]carbamoyl}cylcopropoyl]-3,6-dioxo-17-{3-[(4-phenylbutyl)amino]propoxy}-1,1a,3,4,5,6,9,10,18,19,20,21,22,22a-tetra decahydro-8H-7,10-methanocyclopropa[18,19][1,10,3,6] dioxadiazacyclononadecino[11,12-b] quinoline-8-carboxamide] | 0.05 | 0.77
